Measurements from publication PMC7617978, “Anti-trypanosomal quinazolines targeting lysyl-tRNA synthetases show partial efficacy in a mouse model of acute Chagas disease” (Science translational medicine, 2025).
Where two headings read alike, the source gives them in different places.

Assays:
[1] = tested on: T. cruzi (Tulahuen strain) intracellular amastigote (in L6 cells); experiment: Drug sensitivity assay, T. cruzi (Tulahuen)-infected L6 rat skeletal myoblasts; type: cell-based; settings: Trypanosoma cruzi
Protocol: T. cruzi epimastigotes of the Silvio strain (MHOM/BR/78/Silvio; clone X10/7A) were maintained at 28°C in RPMI 1640 medium (Merck) supplemented with trypticase peptone (4.9 mg/ml), HEPES (20 mM), haemin (20 μg/ml), and foetal bovine serum (FBS, 10%), as previously described ([29]). T. cruzi metacyclic trypomastigotes were obtained and maintained, as previously described ([29]). Briefly, late-log epimastigotes were seeded at 10^6 cells/ml in RTH/FBS and differentiated into trypomastigotes after 7 days at 28°C. Vero cells were infected with trypomastigotes for 12 hours in Dulbecco modified Eagle medium (DMEM) supplemented with 5% FBS, at 37°C in the presence of 5% CO2. Infected Vero cells were washed 3× with DMEM/FBS to remove extracellular parasites, and medium was replaced every two days until trypomastigotes re-emerged. Three rounds of infection were performed before trypomastigotes were harvested for drug sensitivity assays. For drug sensitivity assays carried out at the Swiss Tropical Institute, a T. cruzi cell line (Tulahuen C2C4) expressing the β-galactosidase gene LacZ was propagated in L6 rat skeletal myoblasts (ATCC CRL-1458) as previously described ([37]).
Drug sensitivity assays with T. cruzi (Tulahuen)-infected L6 rat skeletal myoblasts were carried out as previously described ([37]).

human KRS = target: T1, human KRS (Homo sapiens, UniProt Q15046); experiment: Human KRS inhibition assay using BIOMOL Green; type: biochemical; settings: for IC50: recombinant HsKRS, 3.5 μM ATP, 6 μM L-lysine, read-out: IC50 values (95% CI)
T1 construct: made in house
T1 sequence (Q15046 whole entry): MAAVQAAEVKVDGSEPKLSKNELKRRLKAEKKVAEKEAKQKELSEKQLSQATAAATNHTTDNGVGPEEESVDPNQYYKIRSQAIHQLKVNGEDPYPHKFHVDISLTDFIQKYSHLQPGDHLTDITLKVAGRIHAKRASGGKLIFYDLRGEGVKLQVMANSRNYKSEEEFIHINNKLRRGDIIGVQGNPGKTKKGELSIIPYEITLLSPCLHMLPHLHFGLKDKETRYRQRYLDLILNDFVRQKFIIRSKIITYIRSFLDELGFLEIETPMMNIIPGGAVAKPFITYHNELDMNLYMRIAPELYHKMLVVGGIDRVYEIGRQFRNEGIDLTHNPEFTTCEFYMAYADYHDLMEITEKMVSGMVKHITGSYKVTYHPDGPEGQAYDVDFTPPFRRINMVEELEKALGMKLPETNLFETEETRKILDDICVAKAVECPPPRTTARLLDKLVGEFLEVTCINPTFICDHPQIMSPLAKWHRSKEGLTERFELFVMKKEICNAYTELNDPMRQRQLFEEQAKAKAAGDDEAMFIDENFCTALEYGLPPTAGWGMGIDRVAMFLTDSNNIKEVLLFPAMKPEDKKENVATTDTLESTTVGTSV
Protocol: Cloning, expression and purification of recombinant HsKRS has been described previously ([21]).
The enzymatic activity of recombinant KRS was determined by monitoring the concentration of pyrophosphate released during the first step of the reaction catalyzed by recombinant TcKRS1. The pyrophosphate formed was converted to two inorganic phosphate molecules using a pyrophosphatase enzyme and concentrations of the resulting phosphate were measured using the BIOMOL Green reagent (Enzo Life Sciences). All screening assays were performed in 384-well, clear, flat-bottom plates (Greiner) at room temperature (~23°C) in 50 μl reaction volumes.
To generate IC50 data for test compounds, 10-point inhibitor dose-response curves were prepared in 384-well assay plates using an ECHO 550 acoustic dispenser (Labcyte).
All assays were performed by adding 25 μl of assay buffer with enzyme to compound-containing assay wells before the reaction was initiated with the addition of a 25 μl substrate mixture containing L-lysine, ATP and pyrophosphatase. […] Following a 6–h reaction at room temperature, the assays were stopped by the addition of 50 μl BIOMOL Green. The BIOMOL Green signal was allowed to develop for 30 min before the absorbance of each well was read at 650 nm using a PheraStar plate reader (BMG). All liquid-dispensing steps were carried out using a Thermo Scientific WellMate dispenser (Matrix).
All IC50 curve fitting was undertaken using ActivityBase XE (version 7.7.1) from IDBS. Percentage inhibition curves for TcKRS1 and human KRS, were fitted to a four-parameter logistic dose-response equation (XLfit model 203), with pre-fitting for all four parameters, using the equation below, where A is no inhibition, B is maximum inhibition, C is the Log10 (IC50), D is the Hill slope and x is the inhibitor concentration. […]

T. b. brucei BSF = experiment: Drug sensitivity assay, T. b. brucei bloodstream forms; type: cell-based; settings: for EC50: Trypanosoma brucei
CYP2C9 = CYP2C9 (Homo sapiens, UniProt P11712); experiment: In vitro CYP inhibition, 2C9; type: in vitro ADME
Sequence of CYP2C9 (P11712 whole entry, canonical isoform): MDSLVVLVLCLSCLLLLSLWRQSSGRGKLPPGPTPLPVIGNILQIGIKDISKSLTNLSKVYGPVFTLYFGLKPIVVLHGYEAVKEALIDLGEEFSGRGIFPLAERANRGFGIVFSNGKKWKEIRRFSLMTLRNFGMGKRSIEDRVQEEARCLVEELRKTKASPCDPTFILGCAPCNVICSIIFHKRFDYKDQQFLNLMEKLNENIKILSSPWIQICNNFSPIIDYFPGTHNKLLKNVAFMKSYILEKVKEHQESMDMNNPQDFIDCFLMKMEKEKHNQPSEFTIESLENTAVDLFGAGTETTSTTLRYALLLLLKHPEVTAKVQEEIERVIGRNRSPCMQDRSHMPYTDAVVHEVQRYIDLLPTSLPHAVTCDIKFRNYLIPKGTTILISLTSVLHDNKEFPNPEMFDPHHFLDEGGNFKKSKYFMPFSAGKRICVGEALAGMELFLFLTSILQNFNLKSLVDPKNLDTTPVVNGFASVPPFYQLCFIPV
Protocol: (§1) Compounds were screened for CYP inhibition activity using the protocol established by TCG Lifesciences (India). The activity of five CYP450 isoforms: 1A2; 2C9; 2D6, 3A4; and 2C19 was monitored in the presence of test or control (miconazole) compounds at 10 µM. Reactions were terminated after 10 min (30 min for CYP2C19) by the addition of acetonitrile, centrifuged and analysed via LC-MS/MS. […]

hERG channel = target: T2, hERG channel (Homo sapiens, UniProt Q12809); experiment: In vitro hERG fluorescence polarization assay; type: binding; settings: read-out: hERG inhibition (IC50 value)
T2 construct: purchased Invitrogen
T2 sequence (Q12809 whole entry): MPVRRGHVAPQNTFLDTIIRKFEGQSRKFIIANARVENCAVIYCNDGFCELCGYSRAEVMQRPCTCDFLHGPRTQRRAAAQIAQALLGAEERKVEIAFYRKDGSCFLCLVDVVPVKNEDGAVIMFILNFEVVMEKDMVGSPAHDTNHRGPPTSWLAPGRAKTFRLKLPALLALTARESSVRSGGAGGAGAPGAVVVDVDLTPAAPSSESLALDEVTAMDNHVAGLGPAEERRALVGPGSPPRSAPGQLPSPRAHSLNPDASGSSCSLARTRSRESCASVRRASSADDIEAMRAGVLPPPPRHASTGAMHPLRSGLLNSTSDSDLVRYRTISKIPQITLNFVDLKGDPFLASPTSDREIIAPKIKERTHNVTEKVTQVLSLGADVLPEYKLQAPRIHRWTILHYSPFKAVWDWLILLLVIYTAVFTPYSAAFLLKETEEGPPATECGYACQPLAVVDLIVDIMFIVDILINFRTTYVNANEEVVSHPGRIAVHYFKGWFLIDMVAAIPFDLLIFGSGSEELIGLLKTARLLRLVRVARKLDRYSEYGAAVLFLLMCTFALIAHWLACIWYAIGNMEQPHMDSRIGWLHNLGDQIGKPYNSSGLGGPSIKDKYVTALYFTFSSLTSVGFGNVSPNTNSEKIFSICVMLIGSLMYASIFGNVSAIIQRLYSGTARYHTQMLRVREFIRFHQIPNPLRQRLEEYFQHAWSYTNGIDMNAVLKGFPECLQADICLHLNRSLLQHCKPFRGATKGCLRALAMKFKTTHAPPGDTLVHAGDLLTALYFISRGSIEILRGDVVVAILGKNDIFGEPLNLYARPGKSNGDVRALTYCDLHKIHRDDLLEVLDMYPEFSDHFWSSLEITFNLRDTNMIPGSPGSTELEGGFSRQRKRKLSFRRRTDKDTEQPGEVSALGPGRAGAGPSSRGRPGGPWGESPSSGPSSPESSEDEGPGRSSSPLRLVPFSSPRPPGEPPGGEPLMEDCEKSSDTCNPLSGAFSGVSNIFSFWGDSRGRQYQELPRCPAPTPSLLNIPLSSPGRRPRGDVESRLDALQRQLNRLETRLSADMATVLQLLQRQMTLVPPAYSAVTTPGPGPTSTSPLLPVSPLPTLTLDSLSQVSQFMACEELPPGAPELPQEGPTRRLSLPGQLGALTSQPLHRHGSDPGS
Protocol: In vitro hERG fluorescence polarization assay
Compounds were assessed for potential hERG channel inhibition using the Predictor® hERG Fluorescence Polarization Assay Kit (Invitrogen), as per manufacturer’s instructions.
Compounds were screened with test compounds at concentrations ranging from 0.0003 – 30
µM. Fluorescence polarization was measured using EnVision plate reader fitted with polarized filters (excitation: 531 nm; emission: 595 nm). IC50 values were determined using GraphPad

CYP2D6 = CYP2D6 (Homo sapiens, UniProt P10635); experiment: In vitro CYP inhibition, 2D6; type: in vitro ADME
Sequence of CYP2D6 (P10635 whole entry): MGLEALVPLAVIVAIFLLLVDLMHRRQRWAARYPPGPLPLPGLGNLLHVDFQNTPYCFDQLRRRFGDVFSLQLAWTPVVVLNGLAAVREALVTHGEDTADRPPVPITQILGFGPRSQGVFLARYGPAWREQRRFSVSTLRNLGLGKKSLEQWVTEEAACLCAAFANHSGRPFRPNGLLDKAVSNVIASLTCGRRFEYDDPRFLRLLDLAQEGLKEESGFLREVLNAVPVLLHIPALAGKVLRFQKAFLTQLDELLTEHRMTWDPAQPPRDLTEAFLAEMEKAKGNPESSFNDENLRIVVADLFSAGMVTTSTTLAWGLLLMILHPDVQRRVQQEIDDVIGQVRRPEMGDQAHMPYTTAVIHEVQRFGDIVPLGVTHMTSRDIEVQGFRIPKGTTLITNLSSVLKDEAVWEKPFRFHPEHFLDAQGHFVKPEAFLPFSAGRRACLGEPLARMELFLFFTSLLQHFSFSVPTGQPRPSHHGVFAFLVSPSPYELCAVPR
Protocol: as §1

[2] = tested on: Lysyl-tRNA synthetase 1 (KRS1); experiment: Isothermal proteome profiling (iTPP), TcKRS1; type: binding, T. cruzi; settings: KRS1 (C4B63_45g239); lysate, compound at 10× EC50, 48°C
Protocol: (§2) T. cruzi epimastigote lysates were generated as previously described ([29]). Isothermal TPP assays were performed as previously described ([25]). […] Data processing and analyses were performed as previously described ([25]), except proteins were identified via searches against the T. cruzi Dm28C proteome (tritrypdb.org, version 49).

[3] = tested on: T. cruzi epimastigote lysates; experiment: Isothermal proteome profiling (iTPP), other hit proteins; type: binding; settings: 10× EC50, 48°C
Protocol: as §2

[4] = KRS1 OE, BSF, read-out: EC50 value
[5] = read-out: EC50 value, KRS1 S319L (as printed in Table S1), BSF
[6] = 19S proteasome regulatory subunit (C4B63_14g170)
[7] = Conserved hypothetical protein (C4B63_42g251)
[8] = Mitochondrial processing peptidase, beta subunit (C4B63_3g1101)
[9] = Ribosomal protein S26 (C4B63_6g2300)
[10] = cysteine peptidase, Clan CA, family C2 (C4B63_22g162)

Cc1nc(N)c2c(F)c(F)c(NC3CCCC3)c(F)c2n1 [DMU371, N7-Cyclopentyl-5,6,8-trifluoro-2-methylquinazoline-4,7-diamine]
EC50 ([1]; TULAHUEN, L6, read-out: EC50 value): 0.233 ± 0.086 µM
extent of inhibition of the human KRS1 enzyme (human KRS): partial inhibition
IC50 (human KRS): 9.8 µM
EC50 (T. b. brucei BSF; [4]): 4.25 ± 0.17 µM
EC50 (T. b. brucei BSF; WT, BSF, read-out: EC50 value): 0.607 ± 0.009 µM
EC50 (T. b. brucei BSF; [5]): 1.87 ± 0.071 µM
inhibition at 10 min, 10 µM (CYP2C9): 8.6 ± 0.6%
IC50 (hERG channel): 7.6 ± 1.3 µM

Cc1nc(N)c2c(F)c(F)c(SC3CCCCC3)c(F)c2n1 [DMU759, 7-(Cyclohexylthio)-5,6,8-trifluoro-2-methylquinazolin-4-amine]
EC50 ([1]; WT Tulahuen strain, intracellular amastigote in L6 cells, read-out: EC50 value): 0.018 ± 0.007 µM
extent of inhibition of the human KRS1 enzyme (human KRS): partial inhibition
IC50 (human KRS): 7.17 µM
Fold-shift (relative to WT) (T. b. brucei BSF; KRS1 OE, BSF): 9 fold
Fold-shift (relative to WT) (T. b. brucei BSF; KRS1 serine-to-leucine mutant (S323L; printed S319L in Table S1), BSF): 58 fold
EC50 (T. b. brucei BSF; [4]): 1.06 ± 0.033 µM
EC50 (T. b. brucei BSF; WT, BSF, read-out: EC50 value): 0.112 ± 0.0008 µM
EC50 (T. b. brucei BSF; [5]): 6.48 ± 0.36 µM
inhibition at 10 min, 10 µM (CYP2C9): 7.9 ± 0.8%
inhibition at 10 min, 10 µM (CYP2D6): 14.5 ± 2.5%
IC50 (hERG channel): 12.2 ± 1.1 µM
Abundance Log2 fold change Rep 1 [2]: 2.26
Abundance Log2 fold change Rep 2 [2]: 1.94
Abundance Log2 fold change Rep 1 [3, 6]: -2.64
Abundance Log2 fold change Rep 2 [3, 6]: -3.79
Abundance Log2 fold change Rep 1 [3, 7]: -2.25
Abundance Log2 fold change Rep 2 [3, 7]: -1.75
Abundance Log2 fold change Rep 1 [3, 8]: -2.04
Abundance Log2 fold change Rep 2 [3, 8]: -2.35
Abundance Log2 fold change Rep 1 ([3]; P-type H+-ATPase (C4B63_116g3)): -2.27
Abundance Log2 fold change Rep 2 ([3]; P-type H+-ATPase (C4B63_116g3)): -1.74
Abundance Log2 fold change Rep 1 [3, 9]: -1.59
Abundance Log2 fold change Rep 2 [3, 9]: -1.80
Abundance Log2 fold change Rep 1 [3, 10]: -1.58
Abundance Log2 fold change Rep 2 [3, 10]: -2.80
